Data from patent US7671054B1, “Reverse-turn mimetics and method relating thereto” (Choongwae Pharma Corporation, priority 2001, dated 2010).
Where two headings read alike, the source gives them in different places.

Legend:
[1] = tested on: HCT116 cells; assay: Growth inhibition assay (MTS); assay type: cell-based; conditions: Homo sapiens, read-out: Growth Inhibition (GI50, uM) HCT116
Method: (§1) SW480 or HCT116 cells were placed into 96 well microplate (10^4cells/well) and incubated for 24 hours at 37° C. 20 μl of [3-(4,5-dimethylthiazol-2-yl)-5-(3-carboxyphenyl)-2-(4-sulfophenyl)-2H-tetrazolium, inner salt](MTS) solution (Promega) was added into each well and the absorbance after 2 hour incubation at 37° C. (negative control) was read. And then, the cells were treated with TCF4 compound at various concentrations for 48 hours. 20 μl of MTS solution (Promega) was added into each well and incubated for 2 hour at 37° C. Cell viability was measured by reading the absorbance at 490 nm using a microplate reader (Molecular device) and cytotoxicity of a compound at each concentration was calculated.
as §1, with “a test” for “TCF4”

[2] = tested on: SW480 cells; assay: Growth inhibition assay (MTS); assay type: cell-based; conditions: Homo sapiens, read-out: Growth Inhibition (GI50, uM) SW480
Method: as §1
as §1, with “a test” for “TCF4”

[3] = HCT-116, 48 h, Table 5, HCT116 cells, 48 hours treatment, MTS
[4] = SW480, 48 h, Table 5, SW480 cells, 48 hours treatment, MTS
[5] = HCT-116, Table 5, HCT116 cells, 48 hours treatment, MTS
[6] = Table 5, SW480 cells, 48 hours treatment, MTS
[7] = HCT-116, 48 h, Example 21, HCT116 cells, 48 hours treatment, MTS
[8] = SW480, 48 h, Example 21, SW480 cells, 48 hours treatment, MTS

SMILES | GI50 [1, 3] | GI50 [2, 4] | further results
C=CCN1CC(=O)N2[C@@H](Cc3ccc(O)cc3)C(=O)N(Cc3ccc(Cl)c4cccnc34)C[C@@H]2N1C(=O)NCc1ccccc1 [Compound 109] | 1.1 ± 0.1 µM | 1.3 ± 0.3 µM | –
C=CCN1CC(=O)N2[C@@H](Cc3ccc(OP(=O)(O)O)cc3)C(=O)N(Cc3cc(F)c(F)cc3N(C)C)C[C@@H]2N1C(=O)NCc1ccccc1 [Compound 133] | – | – | GI50 [1, 5]: 2.1 ± 1.8 µM; GI50 [2, 6]: 2.3 ± 0.1 µM
CCCN1CC(=O)N2[C@@H](Cc3ccc(O)cc3)C(=O)N(Cc3cccc(N4CCOCC4)c3)C[C@@H]2N1C(=O)NCc1ccccc1 [Compound 96] | 3.4 ± 0.4 µM | 3.7 ± 0.4 µM | –
C=CCN1CC(=O)N2[C@@H](Cc3ccc(O)cc3)C(=O)N(Cc3ccc(OC(F)(F)F)cc3)C[C@@H]2N1C(=O)NCc1ccccc1 [Compound 181] | 2.3 ± 0.1 µM | 2.3 ± 0.1 µM | –
C=CCN1CC(=O)N2[C@@H](Cc3ccc(O)cc3)C(=O)N(Cc3ccc(OC)cc3)C[C@@H]2N1C(=O)NCc1ccccc1 [Compound 178] | 1.5 ± 4.4 µM | 1.6 ± 0.2 µM | –
C=CCN1CC(=O)N2[C@@H](Cc3ccc(O)cc3)C(=O)N(Cc3cccc(NC)c3)C[C@@H]2N1C(=O)NCc1ccccc1 [Compound 163] | 2.3 ± 0.4 µM | 2.4 ± 0.2 µM | –
C=CCN1CC(=O)N2[C@@H](Cc3ccc(O)cc3)C(=O)N(Cc3cccc4c3OCCO4)C[C@@H]2N1C(=O)NCc1ccc(Cl)c(Cl)c1 [Compound 174] | 1.8 ± 0.1 µM | 1.9 ± 0.2 µM | –
C=CCN1CC(=O)N2[C@@H](CN([C@H](C)c3ccc(Cl)c4cccnc34)C(=O)[C@@H]2Cc2ccc(O)cc2)N1C(=O)NCc1ccccc1 [Compound 159] | 8.2 ± 0.4 µM | 9.1 ± 0.5 µM | –
C=CCN1CC(=O)N2[C@@H](Cc3ccc(O)cc3)C(=O)N(Cc3cccc4sc(C(=O)OCC)nc34)C[C@@H]2N1C(=O)NCc1ccccc1 [Compound 195] | 3 ± 0.3 µM | 3.1 ± 0.4 µM | –
C=CC[C@@H]1CC(=O)N2[C@H](CN(Cc3cccc4scnc34)C(=O)[C@@H]2Cc2ccc(O)cc2)N1C(=O)NCc1ccccc1 | – | – | GI50 [1, 7]: 1.4 µM; GI50 [2, 8]: 1.2 µM
C=CC[C@@H]1CC(=O)N2[C@H](CN(Cc3cccc(OC)c3OC)C(=O)[C@@H]2Cc2ccc(O)cc2)N1C(=O)NCc1ccccc1 | – | – | GI50 [1, 7]: 4.91 µM; GI50 [2, 8]: 4.1 µM
CN1CC(=O)N2[C@@H]([C@H](O)c3ccc(O)cc3)C(=O)N(Cc3ccc(F)cc3F)C[C@@H]2N1C(=O)NCc1ccccc1 [Compound 86] | 6.5 ± 0.6 µM | 9.6 ± 1.6 µM | –
C=CCN1CC(=O)N2[C@@H](Cc3ccc(O)c(F)c3)C(=O)N(Cc3ccc(F)cc3)C[C@@H]2N1C(=O)NCc1ccccc1 [Compound 156] | 3.8 ± 0.2 µM | 3.7 ± 0.3 µM | –
C=CCN1CC(=O)N2[C@@H](Cc3ccc(OC(=O)NCCN(C)C)cc3)C(=O)N(Cc3ccc(F)cc3F)C[C@@H]2N1C(=O)NCc1ccccc1 [Compound 143] | – | – | GI50 ([1]; HCT-116, 48 h): 1.2 ± 0.1 µM; GI50 ([2]; SW480, 48 h): 1.2 ± 0.1 µM
C=CCN1CC(=O)N2[C@@H](Cc3ccc(OP(=O)(O)O)cc3)C(=O)N(Cc3ccccc3)C[C@@H]2N1C(=O)NCc1ccccc1 [Compound 144] | – | – | GI50 [1, 5]: 0.6 ± 0.1 µM; GI50 [2, 6]: 0.5 ± 0.03 µM
CCCN1CC(=O)N2[C@@H](Cc3ccc(NC=O)cc3)C(=O)N(Cc3ccc(F)cc3F)C[C@@H]2N1C(=O)NCc1ccccc1 [Compound 130] | 10.7 ± 1.7 µM | 17.3 ± 1.2 µM | –
C=CCN1CC(=O)N2[C@@H](Cc3ccc(O)cc3)C(=O)N(Cc3ccccc3)C[C@@H]2N1C(=O)NCc1ccc(Cl)c(Cl)c1 [Compound 177] | 1.6 ± 0.1 µM | 1.8 ± 0.1 µM | –
C[C@H]1[C@@H]2N(C(=O)CN(C)N2C(=O)NCc2ccccc2)[C@@H](Cc2ccc(O)cc2)C(=O)N1Cc1ccc(F)cc1F [Compound 45] | 2.9 ± 0.4 µM | 2.5 ± 0.2 µM | –
C=CCN1CC(=O)N2[C@@H](Cc3ccc(O)cc3)C(=O)N([C@@H](C)c3cccc4cccnc34)C[C@@H]2N1C(=O)NCc1ccccc1 [Compound 160] | 10.1 ± 1.3 µM | 13.7 ± 0.5 µM | –

The next lines start with results.

GI50 [1, 3] | GI50 [2, 4] | SMILES | further results
3 ± 0.9 µM | 3.4 ± 0.4 µM | [2H]c1cc(C[C@H]2C(=O)N(Cc3cccc4ccccc34)C[C@H]3N2C(=O)CN(C)N3C(=O)NCc2ccccc2)cc([2H])c1O [Compound 136] | –
25.4 µM | 3.9 µM | CN1CC(=O)N2[C@@H](Cc3ccc(O)cc3)C(=O)N(Cc3ccc(F)cc3C(F)(F)F)C[C@@H]2N1C(=O)NCc1ccccc1 [Compound 23] | –
39.1 µM | > 50 µM | CN(C)c1ccc(C[C@H]2C(=O)N(Cc3cccc4ccccc34)C[C@H]3N2C(=O)CN(C)N3C(=O)NCc2ccccc2)cc1 [Compound 43] | –
2.1 µM | 2.7 µM | CN1CC(=O)N2[C@@H](Cc3ccc(O)cc3)C(=O)N(Cc3cccc(C(F)(F)F)c3)C[C@@H]2N1C(=O)NCc1ccccc1 [Compound 14] | –
3.8 ± 0.6 µM | 3.7 ± 0.2 µM | C#CCn1ncc2ccc(CN3C[C@H]4N(C(=O)CN(C)N4C(=O)NCc4ccccc4)[C@@H](Cc4ccc(O)cc4)C3=O)cc21 [Compound 68] | –
3.91 µM | 3.96 µM | CN1CC(=O)N2[C@@H](Cc3ccc(O)cc3)C(=O)N(Cc3ccccc3SC(F)(F)F)C[C@@H]2N1C(=O)NCc1ccccc1 [Compound 6] | –
4.9 ± 0.7 µM | 7.1 ± 0.5 µM | CN1CC(=O)N2[C@@H](Cc3ccc(O)cc3)C(=O)N(Cc3ccc4ncsc4c3)C[C@@H]2N1C(=O)NCc1ccccc1 [Compound 54] | –
0.6 ± 0.1 µM | 0.7 ± 0.1 µM | C=CCN1CC(=O)N2[C@@H](Cc3ccc(O)cc3)C(=O)N(Cc3cccc4scnc34)C[C@@H]2N1C(=O)NCc1ccccc1 [Compound 152] | –
2.23 µM | 2.58 µM | COc1ccccc1CN1C[C@H]2N(C(=O)CN(C)N2C(=O)NCc2ccccc2)[C@@H](Cc2ccc(O)cc2)C1=O [Compound 2] | –
2.75 µM | 5.02 µM | COc1ccc(CN2CC3N(C(=O)CN(C)N3C(=O)NCc3ccccc3)[C@@H](Cc3ccc(O)cc3)C2=O)cc1 (some centres unmarked) [Compound 20] | –
5.2 ± 0.4 µM | 2.8 ± 0.2 µM | C#CCn1cc2cccc(CN3C[C@H]4N(C(=O)CN(C)N4C(=O)NCc4ccccc4)[C@@H](Cc4ccc(O)cc4)C3=O)c2n1 [Compound 79] | –
5.8 ± 0.3 µM | 3 ± 0.3 µM | CN1CC(=O)N2[C@@H](Cc3ccc(O)cc3)C(=O)N(Cc3cccc4cn(Cc5cccc(N)c5)nc34)C[C@@H]2N1C(=O)NCc1ccccc1 [Compound 66] | –
0.4 ± 0.1 µM | 0.3 ± 0.03 µM | C=CCN1CC(=O)N2[C@@H](Cc3ccc(O)cc3)C(=O)N(Cc3cccc4cccnc34)C[C@@H]2N1C(=O)NCc1ccccc1 [Compound 100] | –
4.1 ± 0.7 µM | 4.6 ± 0.5 µM | CN(C)c1cccc(CN2C[C@H]3N(C(=O)CN(C)N3C(=O)NCc3ccccc3)[C@@H](Cc3ccc(O)cc3)C2=O)c1 [Compound 55] | –
3.9 ± 0.6 µM | 4 ± 0.6 µM | C#CCNC(=O)c1ccccc1Cn1ncc2c(CN3C[C@H]4N(C(=O)CN(C)N4C(=O)NCc4ccccc4)[C@@H](Cc4ccc(O)cc4)C3=O)cccc21 [Compound 80] | –
15.5 ± 2.3 µM | 20.7 ± 2.8 µM | CN1CC(=O)N2[C@@H](Cc3ccc(O)cc3)C(=O)N(Cc3cccc(N4CCCCC4)c3)C[C@@H]2N1C(=O)NCc1ccccc1 [Compound 48] | –
10.3 ± 1.6 µM | 10.9 ± 0.6 µM | CN1CC(=O)N2[C@@H](Cc3ccc(O)cc3)C(=O)N(Cc3ccccc3N3CCOCC3)C[C@@H]2N1C(=O)NCc1ccccc1 [Compound 72] | –
9.1 µM | 10.8 µM | CN(Cc1ccccc1)c1cccc(CN2C[C@H]3N(C(=O)CN(C)N3C(=O)NCc3ccccc3)[C@@H](Cc3ccc(O)cc3)C2=O)c1 [Compound 56] | –
4.7 ± 0.4 µM | 11.4 ± 0.9 µM | CN1CC(=O)N2[C@@H](Cc3ccc(O)cc3)C(=O)N(Cc3cccc4c3nnn4C)C[C@@H]2N1C(=O)NCc1ccccc1 [Compound 53] | –
1.91 µM | 1.99 µM | CN1CC(=O)N2[C@@H](Cc3ccc(O)cc3)C(=O)N(Cc3ccc(Cl)c(Cl)c3)C[C@@H]2N1C(=O)NCc1ccccc1 [Compound 4] | –
4.5 ± 0.4 µM | 2 ± 0.1 µM | CN1CC(=O)N2[C@@H](Cc3ccc(O)cc3)C(=O)N(Cc3cccc4nn(CCN5CCOCC5)cc34)C[C@@H]2N1C(=O)NCc1ccccc1 [Compound 75] | –
2.4 ± 0.3 µM | 1.3 ± 0.4 µM | COC(=O)c1ccccc1Cn1ncc2c(CN3C[C@H]4N(C(=O)CN(C)N4C(=O)NCc4ccccc4)[C@@H](Cc4ccc(O)cc4)C3=O)cccc21 [Compound 74] | –
2.39 µM | 2.73 µM | CN1CC(=O)N2[C@@H](Cc3ccc(O)cc3)C(=O)N(Cc3ccc(Cl)cc3)C[C@@H]2N1C(=O)NCc1ccccc1 [Compound 3] | –
3.06 µM | 23.9 µM | CCN(CC)c1cccc(CN2C[C@H]3N(C(=O)CN(C)N3C(=O)NCc3ccccc3)[C@@H](Cc3ccc(O)cc3)C2=O)c1 [Compound 26] | –
